{"source": "ChEMBL document CHEMBL6134780", "about": "“Halogenated retinoid derivatives as dual RARα and RXRα modulators for treating acute promyelocytic leukemia cells” (Eur J Med Chem, 2024)", "key": {"HeLa": {"tested_on": "HeLa", "experiment": "Induction of 3-flag-tagged PML-RARalpha (unknown origin) degradation transfected in human HeLa cells at 1 to 2 uM incubated for 24 hrs by Western blot analysis", "format": "cell-based", "details": "dose 1-2 µM"}, "[1]": {"target": "T1, Retinoic acid receptor alpha (Homo sapiens, UniProt P10276)", "T1 sequence (P10276 whole entry)": "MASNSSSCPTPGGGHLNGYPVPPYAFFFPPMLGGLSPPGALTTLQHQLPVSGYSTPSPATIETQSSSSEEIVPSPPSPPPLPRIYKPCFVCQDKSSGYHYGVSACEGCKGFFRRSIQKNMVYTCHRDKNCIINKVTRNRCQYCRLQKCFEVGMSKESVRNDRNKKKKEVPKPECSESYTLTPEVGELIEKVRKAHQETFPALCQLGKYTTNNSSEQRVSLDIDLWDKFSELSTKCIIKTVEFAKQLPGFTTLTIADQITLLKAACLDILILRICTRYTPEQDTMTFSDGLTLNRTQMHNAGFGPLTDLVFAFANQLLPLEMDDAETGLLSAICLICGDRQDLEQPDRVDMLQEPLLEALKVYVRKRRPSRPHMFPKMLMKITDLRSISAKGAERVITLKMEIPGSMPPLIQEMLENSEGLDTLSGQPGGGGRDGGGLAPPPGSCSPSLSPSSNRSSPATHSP", "experiment": "Binding affinity to N-terminal His-tagged human RARalpha LBD extracted from Escherichia coli BL21 (DE3) cells assessed as dissociation constant by fluorescence quenching assay"}, "ATRA-resistant NB4-LR2 [2]": {"tested_on": "ATRA-resistant NB4-LR2", "experiment": "Induction of mitosis in human ATRA-resistant NB4-LR2 cells assessed as upregulation of pT210-PLK1 expression at 2 uM measured after 3 hrs by Western blot analysis", "format": "functional, cell-based"}, "K562": {"tested_on": "K562", "experiment": "Induction of apoptosis in human K562 cells assessed as viable cells at 1 uM incubated for 24 hrs by Annexin V-FITC/PI staining based flow cytometric analysis (reference value: 90.02 %)", "format": "functional", "details": "read-out: Activity"}, "NB-4 [3]": {"tested_on": "NB-4", "experiment": "Cell cycle arrest in human NB4 cells assessed as accumulation of cells at G0/G1 phase at 0.5 uM incubated for 6 days for DAPI staining based flow cytometric analysis (reference value: 52 %)", "format": "functional", "details": "time 6 day"}, "NB-4 [4]": {"tested_on": "NB-4", "experiment": "Induction of cell differentiation in human NB4 cells at 0.5 uM incubated for 4 to 6 days by CD11b staining based flow cytometric analysis", "format": "functional", "details": "time 4-6 day"}, "NB-4 [5]": {"tested_on": "NB-4", "experiment": "Induction of cell death in M phase synchronized human NB4 cells assessed as reduction in mitotic cells at 0.5 uM preincubated for 4 days followed by release from thymidine block for 10 hrs by immunofluorescence staining based analysis", "format": "functional", "details": "time 106.0 hrs"}, "NB-4 [6]": {"tested_on": "NB-4", "experiment": "Induction of apoptosis in human NB4 cells assessed as viable cells at 1 uM incubated for 24 hrs by Annexin V-FITC/PI staining based flow cytometric analysis (reference value: 92.36 %)", "format": "functional", "details": "read-out: Activity"}, "ATRA-resistant NB4-LR2 [7]": {"tested_on": "ATRA-resistant NB4-LR2", "experiment": "Cell cycle arrest in human ATRA-resistant NB4-LR2 cells transfected with pLVX-shRXRalpha assessed as increase in PLK1 expression at 1 uM incubated for 12 hrs by Western blot analysis", "format": "functional, cell-based"}, "NB-4 [8]": {"tested_on": "NB-4", "experiment": "Cell cycle arrest in human NB4 cells assessed as accumulation of cells at G0/G1 phase at 2 uM incubated for 6 hrs by DAPI staining based flow cytometric analysis (reference value: 56 %)", "format": "functional"}, "NB-4 [9]": {"tested_on": "NB-4", "experiment": "Cell cycle arrest in human NB4 cells assessed as accumulation of cells at G2/M phase at 0.5 uM incubated for 24 hrs by DAPI staining based flow cytometric analysis (reference value: 23 %)", "format": "functional"}, "[10]": {"experiment": "Cell cycle arrest in human ATRA-resistant NB4-LR2 cells assessed as accumulation of cells at S phase at 1 uM incubated for 24 hrs by DAPI staining based flow cytometric analysis (reference value: 21 %)", "format": "functional"}, "NB-4 [11]": {"tested_on": "NB-4", "experiment": "Cell cycle arrest in human NB4 cells assessed as accumulation of cells at sub-G1 phase at 0.5 uM incubated for 24 hrs by DAPI staining based flow cytometric analysis (reference value: 3 %)", "format": "functional"}, "[12]": {"experiment": "Cell cycle arrest in human ATRA-resistant NB4-LR2 cells assessed as accumulation of cells at S phase at 2 uM incubated for 12 hrs by DAPI staining based flow cytometric analysis (reference value: 19 %)", "format": "functional"}, "[13]": {"target": "T1, Retinoic acid receptor alpha", "experiment": "Binding affinity to N-terminal His-tagged human RARalpha LBD extracted from Escherichia coli BL21 (DE3) cells assessed as dissociation constant by ITC analysis"}, "NB-4 [14]": {"tested_on": "NB-4", "experiment": "Cell cycle arrest in human NB4 cells transfected with pLVX-shRXRalpha plasmid assessed as accumulation of cells at sub-G1 phase at 2 uM incubated for 12 hrs by DAPI staining based flow cytometric analysis (reference value: 10 %)", "format": "functional"}, "NB-4 [15]": {"tested_on": "NB-4", "experiment": "Cell cycle arrest in human NB4 cells assessed as accumulation of cells at G0/G1 phase at 2 uM incubated for 3 hrs by DAPI staining based flow cytometric analysis (reference value: 56 %)", "format": "functional"}, "NB-4 [16]": {"tested_on": "NB-4", "experiment": "Cell cycle arrest in human NB4 cells transfected with pLVX-shPML-RARalpha plasmid assessed as accumulation of cells at sub-G1 phase at 1 uM incubated for 12 hrs by DAPI staining based flow cytometric analysis (reference value: 21 %)", "format": "functional"}, "NB-4 [17]": {"tested_on": "NB-4", "experiment": "Cell cycle arrest in human NB4 cells assessed as accumulation of cells at S phase at 1 uM incubated for 12 hrs by DAPI staining based flow cytometric analysis (reference value: 20 %)", "format": "functional"}, "NB-4 [18]": {"tested_on": "NB-4", "experiment": "Induction of apoptosis in human NB4 cells assessed as late apoptotic cells at 1 uM incubated for 24 hrs by Annexin V-FITC/PI staining based flow cytometric analysis (reference value: 2.23 %)", "format": "functional"}, "NB-4 [19]": {"tested_on": "NB-4", "experiment": "Cell cycle arrest in human NB4 cells transfected with pLVX-shRNA2-negative control assessed as accumulation of cells at G0/G1 phase at 2 uM incubated for 12 hrs by DAPI staining based flow cytometric analysis (reference value: 46 %)", "format": "functional"}, "[20]": {"experiment": "Cell cycle arrest in human ATRA-resistant NB4-LR2 cells assessed as accumulation of cells at G2/M phase at 0.5 uM incubated for 24 hrs by DAPI staining based flow cytometric analysis (reference value: 25 %)", "format": "functional"}, "[21]": {"experiment": "Cell cycle arrest in human ATRA-resistant NB4-LR2 cells assessed as accumulation of cells at S phase at 2 uM incubated for 3 hrs by DAPI staining based flow cytometric analysis (reference value: 19 %)", "format": "functional"}, "NB-4 [22]": {"tested_on": "NB-4", "experiment": "Cell cycle arrest in human NB4 cells transfected with pLVX-shRXRalpha plasmid assessed as accumulation of cells at G0/G1 phase at 1 uM incubated for 12 hrs by DAPI staining based flow cytometric analysis (reference value: 53 %)", "format": "functional"}, "[23]": {"experiment": "Cell cycle arrest in human ATRA-resistant NB4-LR2 cells assessed as accumulation of cells at G0/G1 phase at 1 uM incubated for 12 hrs by DAPI staining based flow cytometric analysis (reference value: 42 %)", "format": "functional"}, "NB-4 [24]": {"tested_on": "NB-4", "experiment": "Cell cycle arrest in human NB4 cells assessed as accumulation of cells at S phase at 2 uM incubated for 12 hrs by DAPI staining based flow cytometric analysis (reference value: 20 %)", "format": "functional"}, "NB-4 [25]": {"tested_on": "NB-4", "experiment": "Cell cycle arrest in human NB4 cells assessed as accumulation of cells at G2/M phase at 2 uM incubated for 6 hrs by DAPI staining based flow cytometric analysis (reference value: 21 %)", "format": "functional"}}, "note": "Activity calls are given as the source filed them. The calls are words filed in the database; no cut-off is given here.", "data": [{"molecule": "Cc1cc2c(cc1C(=O)/C(Br)=C\\c1ccc(C(=O)O)cc1)C(C)(C)CCC2(C)C", "values": [{"measurement": "Activity", "setting": "HeLa", "value": "Active"}, {"measurement": "Kd", "setting": "[1]", "value": 553, "unit": "nM"}, {"measurement": "Activity", "setting": "ATRA-resistant NB4-LR2 [2]", "value": "Active"}, {"measurement": "viability at 1 µM", "setting": "K562", "value": 90.4, "unit": "%"}, {"measurement": "Activity", "setting": "NB-4 [3]", "value": 72, "unit": "%"}, {"measurement": "Activity", "setting": "NB-4 [4]", "value": "Active"}, {"measurement": "Activity", "setting": "NB-4 [5]", "value": "Active"}, {"measurement": "viability at 1 µM", "setting": "NB-4 [6]", "value": 76.7, "unit": "%"}]}, {"molecule": "Cc1cc2c(cc1C(=O)/C(Br)=C/c1ccc(C(=O)O)cc1)C(C)(C)CCC2(C)C", "values": [{"measurement": "Activity", "setting": "HeLa", "value": "Active"}, {"measurement": "Activity", "setting": "ATRA-resistant NB4-LR2 [7]", "value": "inactive"}, {"measurement": "Activity", "setting": "NB-4 [8]", "value": 30, "unit": "%"}, {"measurement": "Activity", "setting": "NB-4 [9]", "value": 26, "unit": "%"}, {"measurement": "Kd", "setting": "[1]", "value": 433, "unit": "nM"}, {"measurement": "Activity", "setting": "ATRA-resistant NB4-LR2 [2]", "value": "Active"}, {"measurement": "Activity", "setting": "[10]", "value": 18, "unit": "%"}, {"measurement": "Activity", "setting": "NB-4 [11]", "value": 5, "unit": "%"}, {"measurement": "Activity", "setting": "[12]", "value": 10, "unit": "%"}, {"measurement": "Kd", "setting": "[13]", "value": 1080, "unit": "nM"}, {"measurement": "viability at 1 µM", "setting": "K562", "value": 89.3, "unit": "%"}, {"measurement": "Activity", "setting": "NB-4 [3]", "value": 71, "unit": "%"}, {"measurement": "Activity", "setting": "NB-4 [14]", "value": 12, "unit": "%"}, {"measurement": "Activity", "setting": "NB-4 [15]", "value": 48, "unit": "%"}, {"measurement": "Activity", "setting": "NB-4 [16]", "value": 24, "unit": "%"}, {"measurement": "Activity", "setting": "NB-4 [17]", "value": 13, "unit": "%"}, {"measurement": "Activity", "setting": "NB-4 [18]", "value": 18.68, "unit": "%"}, {"measurement": "Activity", "setting": "NB-4 [4]", "value": "Active"}, {"measurement": "Activity", "setting": "NB-4 [19]", "value": 30, "unit": "%"}, {"measurement": "Activity", "setting": "[20]", "value": 33, "unit": "%"}, {"measurement": "Activity", "setting": "[21]", "value": 6, "unit": "%"}, {"measurement": "Activity", "setting": "NB-4 [22]", "value": 36, "unit": "%"}, {"measurement": "Activity", "setting": "NB-4 [5]", "value": "Active"}, {"measurement": "viability at 1 µM", "setting": "NB-4 [6]", "value": 59.8, "unit": "%"}, {"measurement": "Activity", "setting": "[23]", "value": 10, "unit": "%"}, {"measurement": "Activity", "setting": "NB-4 [24]", "value": 22, "unit": "%"}, {"measurement": "Activity", "setting": "NB-4 [25]", "value": 40, "unit": "%"}]}]}
